Measured values from PMC11558822, “Myc 9aaTAD activation domain binds to mediator of transcription with superior high affinity” (Molecular Medicine, 2024).
Residues, ends and D or L forms follow the SMILES beside them. No end group written: not given here. *: point of attachment. Biotin = O=C1N[C@H]2[C@H](CS[C@H]2CCCCC(=O)*)N1

How the values were obtained:
[1] = target: T1, KIX domain of CBP (Homo sapiens, UniProt Q92793); experiment: Bio-layer interferometry (BLI) of immobilized 9aaTAD peptides with KIX domain; type: binding; details: for Kd: BLI Octet RED96e, biotinylated peptide on streptavidin SA biosensors, KIX 0.31-5.0 μM, 20 mM sodium phosphate pH 6.0, 50 mM NaCl, 30 °C, steady-state 1:1 fit, average of pentaplicate, read-out: KD(apparent)
T1 construct: GST (N, cleaved yes); His6 (N, cleaved yes); made in house
T1 sequence (Q92793 587-666 limits assumed): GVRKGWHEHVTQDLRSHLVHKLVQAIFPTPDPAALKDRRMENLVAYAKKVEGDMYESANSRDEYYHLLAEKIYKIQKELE
Protocol: Bio-layer interferometry on Octet RED96e (ForteBio) was used for the analysis of interaction between KIX domain and proposed activation domains. All experiments were performed at 30 °C at 1000 rpm shaking. Streptavidin-bearing SA biosensors (ForteBio) were immersed for 300 s into the assay buffer (20 mM sodium phosphate pH 6.0, 50 mM NaCl) containing 60 μM biotinylated MLL, MYC or NMY peptide, respectively. After subsequent wash in the assay buffer, the final steady response of ligand reached 0.6–0.8 nm. Parallel blank sensor was treated the same way with pure assay buffer being used instead of biotinylated peptide solution in the immobilization step. For the binding assay, all sensors were used in parallel applying the following procedure: 120 s baseline in the assay buffer, 180 s association in the assay buffer containing increasing concentration of KIX domain for each cycle (0.31, 0.63, 1.25, 2.5 and 5.0 μM), 240 s dissociation in the assay buffer and 3 repetitions of 30 s regeneration in 50 mM NaOH followed by 30 s assay buffer wash. Each binding experiment was performed in pentaplicate and the data were processed using Data Analysis 11.1 evaluation SW (ForteBio). Obtained binding curves were blank-subtracted and fitted by a 1:1 binding model using steady state analysis. Final KD (apparent) values were calculated as an average of all measurements.

[2] = tested on: lacZ reporter driven by the lexA operator; experiment: One hybrid transactivation (β-galactosidase reporter) assay with LexA hybrids in yeast strain L40; type: cell-based, Saccharomyces cerevisiae; details: for ß-Gal: raw β-galactosidase activity; for Reporter activation (average value in %): β-galactosidase activity of LexA hybrid, % of positive control p53 construct 6p53 set to 100%, mean ± SD, n = 3; for normalized value in %: β-galactosidase, % of 6p53 mean; for activation function (times): one hybrid assay, presence versus absence of 9aaTAD (region 100–108) in the construct
[3] = replicate 1 (first sample of the construct)
[4] = replicate 2 (second sample of the construct)
[5] = replicate 3 (third sample of the construct)

Binding to KIX ([1]; BLI, KIX in the 3–16 μM range, negative control)	Molecule	Kd [1]	ß-Gal [2, 3]	ß-Gal [2, 4]	ß-Gal [2, 5]	Reporter activation (average value in %) [2]	normalized value in % [2, 3]	normalized value in % [2, 4]	normalized value in % [2, 5]	activation function (times) [2]
	CC[C@H](C)[C@H](NC(=O)[C@H](CC(=O)O)NC(=O)[C@H](CO)NC(=O)[C@@H]1CCCN1C(=O)[C@H](CC(C)C)NC(=O)[C@@H](NC(=O)[C@H](CC(N)=O)NC(=O)[C@H](CO)NC(=O)CNC(=O)CCCC[C@@H]1SC[C@@H]2NC(=O)N[C@@H]21)[C@@H](C)CC)C(=O)N[C@@H](CCSC)C(=O)N[C@@H](CC(=O)O)C(=O)N[C@@H](Cc1ccccc1)C(=O)N[C@H](C(=O)N[C@@H](CC(C)C)C(=O)N[C@@H](CCCCN)C(=O)N[C@@H](CC(N)=O)C(=O)N[C@H](C(=O)O)[C@@H](C)O)C(C)C [MLL, reference compound] (Biotin-GSNILPSDIMDFVLKNT-OH)	1.17 ± 0.21 µM								
	CSCC[C@H](NC(=O)[C@H](CCC(=O)O)NC(=O)[C@@H](NC(=O)[C@@H](NC(=O)[C@H](Cc1c[nH]c2ccccc12)NC(=O)[C@H](CO)NC(=O)[C@@H]1CCCN1C(=O)[C@@H]1CCCN1C(=O)[C@H](CCC(=O)O)NC(=O)[C@H](CO)NC(=O)[C@H](CO)NC(=O)[C@H](CO)NC(=O)CNC(=O)CCCC[C@@H]1SC[C@@H]2NC(=O)N[C@@H]21)C(C)C)[C@@H](C)O)C(=O)N[C@@H](CC(C)C)C(=O)N[C@@H](CC(C)C)C(=O)N[C@@H](CCC(=O)O)C(=O)N[C@@H](CC(N)=O)C(=O)O [N-Myc] (Biotin-GSSSEPPSWVTEMLLEN-OH)	0.88 ± 0.11 µM								
	CC(C)C[C@H](NC(=O)[C@H](CC(=O)O)NC(=O)[C@H](CC(=O)O)NC(=O)[C@H](CC(C)C)NC(=O)[C@H](CC(=O)O)NC(=O)[C@H](CC(C)C)NC(=O)[C@@H](NC(=O)[C@H](CC(=O)O)NC(=O)[C@H](Cc1c[nH]c2ccccc12)NC(=O)[C@H](CO)NC(=O)[C@@H](NC(=O)[C@H](CC(=O)O)NC(=O)CNC(=O)[C@H](CO)NC(=O)[C@H](CO)NC(=O)CNC(=O)CCCC[C@@H]1SC[C@@H]2NC(=O)N[C@@H]21)C(C)C)[C@@H](C)O)C(=O)N[C@@H](CC(=O)O)C(=O)O [Sp1-Ac] (Biotin-GSSGDVSWDTLDLDDLD-OH)	9.77 ± 1.57 µM								
	CSCC[C@H](NC(=O)[C@H](CCC(=O)O)NC(=O)[C@H](CC(C)C)NC(=O)[C@H](CCC(N)=O)NC(=O)[C@@H](NC(=O)[C@H](CO)NC(=O)[C@H](CO)NC(=O)[C@H](CO)NC(=O)CNC(=O)CCCC[C@@H]1SC[C@@H]2NC(=O)N[C@@H]21)[C@@H](C)O)C(=O)N[C@H](C(=O)N[C@H](C(=O)N[C@@H](CCC(=O)O)C(=O)N[C@@H](CC(C)C)C(=O)N[C@@H](CC(C)C)C(=O)NCC(=O)O)[C@@H](C)O)C(C)C [c-Myc] (Biotin-GSSSTQLEMVTELLG-OH)	2.16 ± 1.17 µM								
did not bind	Biotin—GSS- GQ VSWQ T LQLQ NLQ [native Sp1, biotinylated native Sp1 9aaTAD peptide, negative control for BLI, reference compound]									
	c-Myc region 69-103: LexA hybrid construct of c-Myc region 69–103 without 9aaTAD (ELLPTPPLSPSRRSGLCSPSYVAVTPFSLRGDNDG; LexA fusion; UniProt P01106 69-103, looked up, fragment)		74	83	71	29%	27%	31%	26%	
	c-Myc region 69-108: LexA hybrid construct of c-Myc region 69–108 with 9aaTAD (ELLPTPPLSPSRRSGLCSPSYVAVTPFSLRGDNDGGGGSF; LexA fusion; UniProt P01106 69-108, looked up, fragment)		255	241	242	90%	93%	88%	89%	3 times
	c-Myc region 98-108: LexA hybrid construct of alone-standing c-Myc 9aaTAD activation domain (RGDNDGGGGSF; also: LexA fusion; UniProt P01106 98-108, looked up, fragment)		191	185	169	67%	70%	68%	62%	67 times
